In patent US20080004263A1, “Ligands of Follicle Stimulating Hormone Receptor and Methods of Use Thereof” (priority 2004, published 2008) one finds EC50 data, which are given here for one compound.

Each structure is given as a SMILES string.

The target of this assay is T1, FSH receptor (Homo sapiens, UniProt P23945).
T1 construct: expressed in transfected cells; host or cells: AV12 cells (stably transfected)
T1 sequence (P23945 18-695): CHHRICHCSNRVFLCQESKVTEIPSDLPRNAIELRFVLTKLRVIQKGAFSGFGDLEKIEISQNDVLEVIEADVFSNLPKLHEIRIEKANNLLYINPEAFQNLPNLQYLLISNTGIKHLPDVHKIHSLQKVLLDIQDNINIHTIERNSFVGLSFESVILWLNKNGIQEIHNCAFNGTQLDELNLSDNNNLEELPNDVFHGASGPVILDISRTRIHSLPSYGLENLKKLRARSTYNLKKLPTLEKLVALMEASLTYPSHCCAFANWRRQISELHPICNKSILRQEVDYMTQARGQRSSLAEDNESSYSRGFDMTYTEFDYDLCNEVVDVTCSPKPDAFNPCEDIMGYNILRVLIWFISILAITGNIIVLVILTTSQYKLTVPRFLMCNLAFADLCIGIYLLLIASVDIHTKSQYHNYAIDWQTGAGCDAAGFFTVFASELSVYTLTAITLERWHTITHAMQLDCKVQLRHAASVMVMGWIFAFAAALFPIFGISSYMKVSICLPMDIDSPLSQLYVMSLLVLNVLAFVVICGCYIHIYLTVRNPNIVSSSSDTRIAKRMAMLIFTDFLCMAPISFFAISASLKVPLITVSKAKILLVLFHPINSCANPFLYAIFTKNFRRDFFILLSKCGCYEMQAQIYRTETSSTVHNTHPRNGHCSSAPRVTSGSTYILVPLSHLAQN
Description: cAMP Whole Cell assay (AlphaScreen cAMP detection) in AV12 cells stably transfected with FSH receptor. Type of assay: cell-based. The settings on record: AV12 cells expressing FSH receptor; average of two (2) trials. Here is the method: Compounds of the invention were tested for their ability to activate an FSH receptor protein using an AlphaScreen cAMP detection kit (Perkin Elmer; Cat. No. 6760600R).
AV12 cells stably transfected with an expression vector containing an FSH construct and cultured under conditions permissive for cell surface expression of the encoded FSH receptor were harvested from flasks via non-enzymatic means. The cells were washed in PBS and resuspended in Stimulation Buffer. Live cells were counted using a hemacytometer and Trypan blue exclusion, and the cell concentration was adjusted to 2×10^5 cells/ml. A cAMP standard curve in buffer was prepared with a high final concentration of 1 μM, and serially diluted 1:5 in buffer (10 μL/well). Candidate compounds identified as per above (if frozen, thawed at room temperature) were added to their respective wells (in a 384-well plate) at increasing concentrations (5 μL/well; 10 μM final top assay concentration). To these wells, 2,000 cells in 10 μl of Buffer were added and the mixture as well as 5 μL of cAMP Acceptor Beads in Stimulation Buffer. Following a 30 minute incubation, 5 μL of Donor Bead/Biotinylated cAMP was added to each well, followed by incubation at RT for 2 hours. Plates were read in a Perkin Elmer AlphaQuest™ plate reader per manufacturer instructions.
For orientation: Bead proximity is the source of the signal in Alpha formats.

By EC50 is commonly meant the concentration giving half of the maximal effect. Lower therefore signals a more potent agent. In turn, `Cc1onc(-c2cccc(-c3ccc(-c4nnn[nH]4)cc3)c2)c1-c1csc(C2CCN(C(=O)Cc3cccs3)CC2)n1` [Example 38, 1-[4-(4-{5-Methyl-3-[4′-(1H-tetrazol-5-yl)-biphenyl-3-yl]-isoxazol-4-yl}-thiazol-2-yl)-piperidin-1-yl]-2-thiophen-2-yl-ethanone] yielded an EC50 of 1.1 µM. This counts as single-digit micromolar.
